According to patent US20250009707A1, “METHODS OF INDUCING KETOSIS IN NON-HUMAN MAMMALS” (BOPZ Nutrition Ltd., priority 2023, published 2025):

Columns and labels:
[1] = Tolerability in fed canines, gastric gavage (Example 2); format: in vivo
Procedure: (§1) A group of 6 beagles was evaluated per tested compound of the disclosure. In a first period, the canines were administered 250 mg/kg of C8-BHB. In a second period, the canines were administered 500 mg/kg of C8-BHB. In a third period, the canines were administered MCT at a dose of 5.5%. In a fourth period, the canines were administered 125 mg/kg of C8-BHB. A washout period of 7 days was provided between each of the first, second, third, and fourth periods.
(§2) Following the tolerability results of Example 1, the canines were fed, and the compound was administered by gastric gavage in subsequent examples.
(§3) In each of the first, second, third, and fourth period, pathology samples were taken prior to administration of the compound, then at minute 20, 60, 90, 120, 180, 240, and 300.
(§4) If emesis occurred 60 minutes from administration of the compound, serum BHB content was not analyzed.

[2] = Tolerability (emesis) in fasted canines, sublingual gavage (Example 1); format: in vivo; settings: 250 mg/kg
Procedure: Example 1 provides a method by which compounds of the disclosure were evaluated in a first study, wherein dogs were fasted and the compounds were administered by sublingual gavage.
In a first period, a group of 12 canines (beagles) were administered 5.5% MCT in a first period, and 250 mg/kg C8-BHB in a second period. A 7 day washout period was provided between the first and second periods.
The canines were fasted, and the C8-BHB or MCTs was administered by sublingual gavage.
as §3
Where emesis occurred before 60 minutes from dosing, serum BHB content was not analyzed.
Where emesis occurred at or after 60 minutes from dosing and before 300 minutes from dosing, Cmax was calculated but AUC was not calculated.

[3] = Serum/plasma BHB in fed canines, gastric gavage (Examples 2-4); format: in vivo, canines (beagles); settings: 500 mg/kg
Procedure: Ketosis may be assessed quantitatively by measuring plasma beta-hydroxybutyrate (BHB) concentrations. Methods of measuring plasma BHB concentrations are known in the art. Non-limiting exemplary methods for measuring plasma BHB concentrations are provided in U.S. Pat. No. 10,562,839, which is hereby incorporated by reference in its entirety. Plasma BHB levels may be determined by a colorimetric enzymatic assay (Stanbio Laboratory 2440-058).
as §1, §2
In each of the first, second, third, and fourth period, serum was sampled prior to administration of the compound, then at minute 15, 30, 45, 60, 75, 90, 120, 180, 240, and 300. Serum was sampled for BHB analysis.
as §4
C8-BHB and C8×2-BD were selected as exemplary compounds of the disclosure for administration to canines according to the method of Example 2. Each exemplary compound was administered to 6 canines.
To further evaluate the potential of the compounds of the disclosure for inducing ketosis in canines, the compounds and MCTs were administered to the same canines, as described in Example 2.

SMILES | Tolerability compared to MCTs (FIGS. 2A-D) ([1]; fed canines, gastric gavage, doses of 125, 250 and 500 mg/kg) | Canines tolerating the substance ([1]; fed state, overall) | Tolerability compared to MCTs (FIG. 1B) [2] | BHB Cmax [3] | BHB Tmax [3]
CCCCCCCC(=O)O[C@H](C)CC(=O)OCC [C8-BHB, octanoyl-ethyl-3-hydroxybutyrate] | improved tolerability | 83% | better tolerated | 1.00 mM | 51 min
CCCCCCCC(=O)OCC[C@@H](C)OC(=O)CCCCCCC [C8×2-BD, bis-octanoyl-1,3-butanediol] |  |  |  | 0.70 mM | 57 min
